Reference: US9913914B2, “Cell transport” (priority 2013, dated 2018)
No end group written: not given here. *: point of attachment. FITC = O=C1OC2(c3ccc(O)cc3Oc3cc(O)ccc32)c2ccc(NC(=S)*)cc21

Columns and labels:
[1] = test system: PKA-dependent process of Dictyostelium aggregation; assay: Aggregation of starved Dictyostelium cultures (PKA-dependent); format: cell-based, Dictyostelium discoideum; conditions: 10 micromolar
Description: FIG. 6. Cupid can transport small molecule cargo into cells. Starved Dictyostelium cultures were treated with no peptide (A), cupid B peptide (B), PKI peptide (C) and Cupid B-PKI peptide (D) and analysed for aggregation.
Upon starvation Dictyostelium initiates a developmental program leading to the aggregation of free-living amoebae. Genetic research has uncovered the crucial role that cyclic adenosine monophosphate (cAMP) plays in orchestrating as an extracellular chemoattractant in the initial aggregation process through Dictyostelium cAMP-dependent Protein Kinase (DdPKA). DdPKA can be inhibited by PKI, a 20 amino acid peptide sequence derived from an inhibitor of PKA, by PKI binding directly to the catalytic unit of PKA.
By creating a Cupid B-PKI fusion protein we aimed to establish that it prevents starving Dictyostelium cells from aggregating in vivo.

[2] = test system: Dictyostelium discoideum amoeba cells; format: cell-based; conditions: for entry of fluorescently labeled peptide into cells: 10 μM, 1 hour, Dictyostelium cell; for time for half-maximal permeation: FITC-labelled peptide at 20 micromolar, Dictyostelium cells
Description: (§1) Peptides were labelled with Fluorescein isothiocyanate (FITC) using a FITC labeling kit as per instructions (Pierce, UK). When added to cell cultures the labeled peptides were visualized using a fluorescent microscope by exciting the FITC with a 488 nm spectral line, argon-ion laser (Excitation wavelength of 494 nm and an Emission wavelength of 518 nm).
AX2 wild type Dictyostelium cells were grown on SM agar plates seeded with Aerobacter aerogenes bacteria (also known as Klebsiella aerogenes) as a food source.
Cupid A ([…]; SEQ ID NO: 2) and Cupid B ([…]; SEQ ID NO: 1) were chemically synthesized labelled with FITC at the amino terminal. The peptides were added to cultured eukaryotic cells of Dictyostelium discoideum amoeba for varying amounts of time up to 2 hours. Cells were then washed and prepared for examination under a fluorescent microscope (FIG. 1). The time courses of permeation were compared to the class 3 CPP, the Antennapedia peptide, pANT which was also labelled with FITC in chemical synthesis (FIG. 2).

[3] = test system: human embryonic kidney cells; assay: Permeation of FITC-labelled peptide into human embryonic kidney cells; format: cell-based; conditions: 10 μM, 1 hour, human kidney cell
Text: as §1

human fibroblasts = assay: Permeation of FITC-labelled peptide into human fibroblasts; format: cell-based; conditions: 10 μM, 1 hour, Human Fibroblast cell
Text: as §1

## Cupid B peptide: RRVQIWFQNKRAKVKR (SEQ ID NO: 1), cell penetrating peptide from Dictyostelium discoideum (listed as Dictyostelium discoideum)
[1]
  effect on Dictyostelium aggregation: neither the Cupid B peptide nor the PKI peptide alone have any effect on aggregation

## FITC-Cupid A: Cupid A (SEQ ID NO: 2) chemically synthesized, labelled with FITC at the amino terminal ({FITC}-RSVQIWFQNRRAKAR; listed as Dictyostelium discoideum)
[2]
  entry of fluorescently labeled peptide into cells: entering cultured cells
  time for half-maximal permeation: 28 min

## FITC-Cupid B: Cupid B (SEQ ID NO: 1) chemically synthesized, labelled with FITC at the amino terminal ({FITC}-RRVQIWFQNKRAKVKR; listed as Dictyostelium discoideum)
[3]
  entry of fluorescently labeled peptide into cells: entering cultured cells
Human fibroblasts
  entry of fluorescently labeled peptide into cells: entering cultured cells
[2]
  entry of fluorescently labeled peptide into cells: entering cultured cells
  time for half-maximal permeation: 17 min
[2]; media containing FITC-peptide replaced with peptide-free media
  reversibility of permeation: reversible
